Laboratory results published in US11046670B2, “Piperazinyl norbenzomorphan compounds and methods for using the same” (priority 2015, dated 2021).
Like-named read-outs stand apart in the source and are kept apart here.

How the values were obtained:
sigma 1 receptor [1] = target: T1, sigma 1 receptor (Cavia porcellus (Guinea pig), UniProt Q60492); settings: for Ki: read-out: σ1 Ki
Description: (§1) Receptor binding assays were performed by the Psychoactive Drug Screening Program (PDSP) at Chapel Hill, N.C. […] Briefly, Sig1Rs and Sig2Rs were sourced from homogenates of Guinea pig brains and rat livers, respectively. Assessment of Sig1R binding affinity was determined via competition binding assays with the radioligand [3H]-(+)-pentazocine. Sig2R binding affinity was determined through competition binding assays using the radioligand [3H]-ditolylguanidine in the presence of (+)-pentazocine to block Sig1R binding sites. […] The radioactivity in the presence of the test compound is calculated with the following equation and expressed as a percent inhibition: % inhibition=(sample CPM non-specific CPM)/Total CPM−non-specific CPM)×100. The normalization process is carried out in Prism or Excel. To determine secondary binding results, CPM/well are pooled and fitted to a three parameter logistic function for competition binding in Prism v 5.0 to determine IC50 values, which are converted to Ki according to the Cheng-Prusoff equation.

sigma 2 receptor [2] = target: T2, sigma 2 receptor (Rattus norvegicus (Rat), UniProt Q5U3Y7); settings: for Ki: read-out: σ2 Ki; for Ki(σ1)/Ki(σ2): selectivity σ2 over σ1
T2 sequence (Q5U3Y7 whole entry): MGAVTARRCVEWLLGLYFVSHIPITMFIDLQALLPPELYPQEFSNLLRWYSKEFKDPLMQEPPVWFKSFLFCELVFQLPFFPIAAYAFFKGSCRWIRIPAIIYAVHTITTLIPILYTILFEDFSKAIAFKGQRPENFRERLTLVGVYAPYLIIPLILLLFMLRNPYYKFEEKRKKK
Description: (§2) Sigma-2 receptor ligands and their binding assays. […] The compounds were dissolved in 100% DMSO prior to the receptor binding assays, which were performed by the Psychoactive Drug Screening Program (PDSP) at Chapel Hill, N.C. […] Briefly, Sig2Rs were sourced from rat liver homogenates (PC12 cells). The Sig2R ligand binding affinity was determined through competition binding assays using the radioligand [^3H]-ditolylguanidine in the presence of (+)-pentazocine to block Sig1R binding sites. The radioactivity in the presence of the test compound is calculated with the following equation and expressed as a percent inhibition: % inhibition=(sample CPM non-specific CPM)/(Total CPM non-specific CPM)×100 where
(§3) CPM stands for counts per minute. To determine secondary binding data, CPM/well are pooled and fitted to a three parameter logistic function for competition binding in Prism v 5.0 to determine IC50 values, which are converted to K, according to the Cheng-Prusoff equation.
as §1

sigma 1 receptor [3] = target: T1, sigma 1 receptor; test: biochemical; settings: for inhibition at 10 µM: read-out: σ1 inhibition of radioligand binding
Description: as §1

sigma 2 receptor [4] = target: T2, sigma 2 receptor; test: biochemical; settings: for inhibition at 10 µM: read-out: σ2 inhibition of radioligand binding
Description: as §2, §3, §1

σ2R = σ2R (Homo sapiens (Human), UniProt Q5BJF2); settings: cited from earlier work
Sequence of σ2R (Q5BJF2 whole entry): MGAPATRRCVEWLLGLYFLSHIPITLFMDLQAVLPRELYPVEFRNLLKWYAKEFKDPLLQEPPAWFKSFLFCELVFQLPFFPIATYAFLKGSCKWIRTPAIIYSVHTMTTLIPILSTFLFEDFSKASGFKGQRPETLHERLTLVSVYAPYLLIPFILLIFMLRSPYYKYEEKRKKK

[5] = test system: Wild-type mice (C57BL/6) subjected to Blast (brain injury); test: Traumatic Brain Injury, Barnes Maze after blast; assay type: in vivo; settings: seven days of daily treatment beginning the day after injury, compared to Veh
Excerpt: FIG. 9 Traumatic Brain Injury treatment; Barnes Maze (spatial and long term memory) after blast; Wild-type mice (C57BL/6) were subjected to either a Blast (brain injury) or Sham blast (no brain injury).

neuroblastoma cells [6] = test: Calcium ion levels in neuroblastoma cells; assay type: cell-based
[7] = test system: proinflammatory cytokines (IL-1β, TNFα, CD14); test: Brain levels of proinflammatory cytokines in transgenic mice; assay type: in vivo; settings: Thy1-APPLond/Swe+ mice, 60 days of treatment (30 mg/kg)
[8] = test system: Murine hippocampal neuron slices; test: Synaptic long term depression in hippocampal neuron slices
Excerpt: FIG. 13 Effect of SAS-0132 on Synaptic Long Term Depression (inhibition); effect of SAS-0132 on dihydroxyphenylglycine (DHPG) mediated increase in long term depression (LTD).

neuroblastoma cells [9] = test: MTT Assay in Neuroblastoma Cells
Description: FIG. 15 MTT Assay in Neuroblastoma Cells; Sigma 2 receptor binding ligands were evaluated for effects in neuroblastoma cells.
FIG. 16 MTT Assay in Neuroblastoma Cells; Sigma 2 receptor binding ligands were evaluated for effects in neuroblastoma cells.

[10] = test system: Wild-type mice (C57BL/6) subjected to Blast (brain injury); test: Traumatic Brain Injury, Morris Water Maze after blast; assay type: in vivo; settings: seven days of daily treatment beginning the day after injury, compared to Veh
Excerpt: FIG. 10 Traumatic Brain Injury treatment; Morris Water Maze (spatial and long term memory) after blast; Wild-type mice (C57BL/6) were subjected to either a Blast (brain injury) or Sham blast (no brain injury).

T1 sequence (Q60492 whole entry): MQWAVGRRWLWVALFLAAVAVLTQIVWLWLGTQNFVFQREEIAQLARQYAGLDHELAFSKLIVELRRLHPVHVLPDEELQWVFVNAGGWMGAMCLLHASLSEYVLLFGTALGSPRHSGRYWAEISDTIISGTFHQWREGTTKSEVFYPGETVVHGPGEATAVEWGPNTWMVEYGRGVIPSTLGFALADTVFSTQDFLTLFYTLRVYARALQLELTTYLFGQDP

| SMILES | σ1 pKi ± SEM (sigma 1 receptor [1]) | Ki (sigma 1 receptor [1]) | σ2 pKi ± SEM (sigma 2 receptor [2]) | Ki (sigma 2 receptor [2]) | Ki(σ1)/Ki(σ2) (sigma 2 receptor [2]) | other results |
| --- | --- | --- | --- | --- | --- | --- |
| CN1CC[C@@H]2C[C@@H]1c1cc(-c3ccc(C(F)(F)F)cc3)ccc12 [Compound 41] | 6.81 ± 0.09 | 156 nM | 7.36 ± 0.08 | 43 nM | 4 |  |
| C=CCOC(=O)N1CC[C@@H]2C[C@@H]1c1cc(N3CCN(C)CC3)ccc12 [Compound 37] | 5.68 ± 0.07 | 2100 nM | 6.37 ± 0.07 | 442 nM | 5 |  |
| CCCOC(=O)CCN1CCN(c2ccc3c(c2)[C@H]2C[C@H]3CCN2C(=O)OCc2ccccc2)CC1 |  |  |  | 58 nM |  |  |
| CN1CCN(c2ccc3c(c2)C2CC3CCN2C(=O)C2CCCCC2)CC1 (racemic) [(±)-TH-1-106, (±)-Cyclohexyl(8-(4-methylpiperazin-1-yl)-1,3,4,5-tetrahydro-2H-1,5-methanobenzo[c]azepin-2-yl)methanone] |  |  |  |  |  | Ki (sigma 1 receptor [3]; σ1 Ki (nM)): 1420 nM; Ki (sigma 2 receptor [4]): 144 nM |
| Clc1cccc(CN2CC[C@@H]3C[C@@H]2c2cc(N4CCCCC4)ccc23)c1 [Compound 38] |  | 3520 nM |  | 746 nM | 5 | Ki (sigma 1 receptor [3]; σ1 pKi ± SEM): 3160 nM; Ki (sigma 2 receptor [4]): 794 nM |
| CN1CCN(c2ccc3c(c2)[C@H]2C[C@H]3CCN2)CC1 [Compound 33] |  |  |  |  |  | inhibition at 10 µM (sigma 2 receptor [4]): < 50% |
| CN1CCN(c2ccc3c(c2)[C@H]2C[C@H]3CCN2S(=O)(=O)c2ccccc2)CC1 [Compound 35] |  |  | 6.12 ± 0.07 | 764 nM |  | inhibition at 10 µM (sigma 1 receptor [3]): < 50% |
| Cc1cccc(-c2ccc3c(c2)[C@H]2C[C@H]3CCN2C)c1 [Compound 43] | 6.41 ± 0.08 | 391 nM | 6.88 ± 0.07 | 133 nM | 3 |  |
| c1ccc(CN2CC[C@@H]3C[C@@H]2c2cc(N4CCCCC4)ccc23)cc1 [Compound 19] | 5.61 ± 0.06 | 2430 nM | 6.5 ± 0.1 | 318 nM | 8 | preference / selectivity for σ2R relative to σ1R (sigma 2 receptor [2]): about 8 fold |
| O=C(OCc1ccccc1)N1CC[C@@H]2C[C@@H]1c1cc(N3CCOCC3)ccc12 [Compound 16] |  |  |  |  |  | sigma receptor binding (in words) (sigma 2 receptor [2]): did not bind; inhibition at 10 µM (sigma 1 receptor [3]): < 50%; inhibition at 10 µM (sigma 2 receptor [4]): < 50% |
| OCCN1CCN(CCCN2c3ccccc3C=Cc3ccccc32)CC1 [opipramol] |  |  |  |  |  | affinity for σ2R (σ2R): appreciable affinity |
| CN1CCN(c2ccc3c(c2)[C@H]2C[C@H]3CCN2C(=O)CCc2ccccc2)CC1 [Compound 36] | 6.53 ± 0.08 | 294 nM | 6.45 ± 0.06 | 357 nM | 1 |  |
| O=C(OCc1ccccc1)N1CC[C@@H]2C[C@@H]1c1cc(Cl)ccc12 [Compound 12] |  |  |  |  |  | inhibition at 10 µM (sigma 1 receptor [3]): < 50%; inhibition at 10 µM (sigma 2 receptor [4]): < 50% |
| CC(C)=CCN1CCN(c2ccc3c(c2)[C@H]2C[C@H]3CCN2C(=O)OCc2ccccc2)CC1 [Compound 30] | 7.21 ± 0.05 | 62 nM | 7.64 ± 0.07 | 23 nM | 3 |  |
| Clc1cc(Cl)cc(CN2CC[C@@H]3C[C@@H]2c2cc(N4CCOCC4)ccc23)c1 [Compound 39] | 5.53 ± 0.09 | 2980 nM |  | 92 nM | 32 | preference / selectivity for σ2R relative to σ1R (sigma 2 receptor [2]): 32 fold; Ki (sigma 2 receptor [4]): 100 nM |
| C=CCCN1CCN(c2ccc3c(c2)[C@H]2C[C@H]3CCN2C(=O)OCc2ccccc2)CC1 [Compound 29] | 6.76 ± 0.05 | 172 nM | 7.79 ± 0.05 | 16 nM | 11 |  |
| CN1CCN(c2ccc3c(c2)[C@H]2C[C@@H]3CCN2C(=O)OCc2ccccc2)CC1 [SAS-0132] |  |  |  |  |  | spatial- and long term memory, Barnes Maze [5]: performed significantly better; DKR-1051-induced calcium response (neuroblastoma cells [6]): concentration-dependent attenuation; intracellular Ca2+ concentration (neuroblastoma cells [6]; concentrations up to 30 μM): does not induce significant increases; brain levels of CD14 [7]: not statistically significant; brain levels of IL-1β [7]: significant reduction; brain levels of TNFα [7]: not statistically significant; DHPG-mediated increase in LTD [8]: blocked; concentration at which cytotoxicity begins (neuroblastoma cells [9]): around 30 microM; toxicity in MTT assay (in words) (neuroblastoma cells [9]): not toxic at low doses |
| FC(F)(F)c1ccc(-c2ccc3c(c2)[C@H]2C[C@H]3CCN2CCc2ccccc2)cc1 [Compound 42] |  | 1060 nM | 6.8 ± 0.1 | 166 nM | 6 | Ki (sigma 1 receptor [3]; σ1 pKi ± SEM): 1000 nM |
| CCCN1CCN(c2ccc3c(c2)C2CC3CCN2C(=O)OCc2ccccc2)CC1 (centres unmarked) [DKR-1516] |  |  |  |  |  | spatial- and long term memory, Barnes Maze [5]: performed significantly better; spatial- and long term memory, Morris Water Maze [10]: performed significantly better |
| Cc1cccc(-c2ccc3c(c2)[C@H]2C[C@H]3CCN2Cc2ccc3c(c2)OCO3)c1 [Compound 44] |  |  |  |  | 6 | Ki (sigma 1 receptor [3]; σ1 Ki (nM)): 4610 nM; Ki (sigma 1 receptor [3]; σ1 pKi ± SEM): 4570 nM; Ki (sigma 2 receptor [4]): 828 nM |
| Fc1ccccc1CN1CC[C@@H]2C[C@@H]1c1cc(N3CCOCC3)ccc12 [Compound 40] | 5.34 ± 0.09 | 4540 nM | 5.9 ± 0.1 | 1260 nM | 4 | preference / selectivity for σ2R relative to σ1R (sigma 2 receptor [2]): 4 fold |
